The source of these data is patent publication US6900315B2, “2-amino-9H-purin-9-yl compounds and methods for inhibiting/treating HIV infections and AIDS related symptoms” (Yale University, priority 2001, dated 2005).

Broadly, the Kd is the equilibrium constant for the complex coming apart.

The target of data set [1] is T1, mitochondrial polymerase gamma (Homo sapiens, UniProt P54098).
T1 sequence (P54098 1-1239): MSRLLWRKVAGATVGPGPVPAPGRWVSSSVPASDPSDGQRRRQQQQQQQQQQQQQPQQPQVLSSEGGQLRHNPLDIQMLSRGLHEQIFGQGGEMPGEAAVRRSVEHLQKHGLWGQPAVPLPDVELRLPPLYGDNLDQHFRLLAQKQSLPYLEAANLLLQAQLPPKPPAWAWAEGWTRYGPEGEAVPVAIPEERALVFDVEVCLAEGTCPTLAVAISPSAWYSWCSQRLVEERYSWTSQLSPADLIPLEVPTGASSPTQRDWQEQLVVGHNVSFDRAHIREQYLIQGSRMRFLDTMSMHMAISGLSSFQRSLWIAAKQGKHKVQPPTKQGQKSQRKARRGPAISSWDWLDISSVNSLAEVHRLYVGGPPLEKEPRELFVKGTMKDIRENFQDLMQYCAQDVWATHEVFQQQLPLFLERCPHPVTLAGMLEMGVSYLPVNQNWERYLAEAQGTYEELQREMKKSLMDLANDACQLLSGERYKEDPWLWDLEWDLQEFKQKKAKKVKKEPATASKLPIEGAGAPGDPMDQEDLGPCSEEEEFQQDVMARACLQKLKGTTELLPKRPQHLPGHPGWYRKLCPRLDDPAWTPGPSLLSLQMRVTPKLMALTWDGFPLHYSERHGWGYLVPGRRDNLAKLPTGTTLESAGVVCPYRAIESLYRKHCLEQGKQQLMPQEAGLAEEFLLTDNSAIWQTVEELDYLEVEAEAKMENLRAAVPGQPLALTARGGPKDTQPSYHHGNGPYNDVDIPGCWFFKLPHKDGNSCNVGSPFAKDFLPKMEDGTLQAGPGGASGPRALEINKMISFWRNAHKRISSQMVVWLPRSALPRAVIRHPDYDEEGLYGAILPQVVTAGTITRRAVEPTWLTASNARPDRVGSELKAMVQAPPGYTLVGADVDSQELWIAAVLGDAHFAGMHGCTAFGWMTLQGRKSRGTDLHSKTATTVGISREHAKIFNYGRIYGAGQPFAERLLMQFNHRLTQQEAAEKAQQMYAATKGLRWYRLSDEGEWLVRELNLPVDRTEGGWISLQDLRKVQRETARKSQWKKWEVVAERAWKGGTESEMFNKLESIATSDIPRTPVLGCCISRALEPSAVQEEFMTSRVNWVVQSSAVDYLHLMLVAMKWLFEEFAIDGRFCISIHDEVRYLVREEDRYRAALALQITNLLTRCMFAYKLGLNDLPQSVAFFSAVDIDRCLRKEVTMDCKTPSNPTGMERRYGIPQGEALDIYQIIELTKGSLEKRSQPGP
To be noted: exonuclease; from Johnson et al.; cited from earlier work.

The target of data set [2] is T1, mitochondrial polymerase gamma. To be noted: cited from earlier work.
Data set [3] concerns the target T2, wild type HIV-1 reverse transcriptase (Human immunodeficiency virus type 1 group M subtype B, UniProt P04585).
T2 construct: a mixture of 100 nM HIV-1 reverse transcriptase and 300 nM primer/template
The note with it: from Ray and Anderson or Furman et al., cited from earlier work.

Data set [4] deals with T1, mitochondrial polymerase gamma. In words: Exonuclease removal from chain terminated primer template by mitochondrial polymerase gamma. The class given is biochemical.
Data set [5] has the same target. In words: Nucleotide incorporation by mitochondrial polymerase gamma into an elongating DNA strand. The class given is biochemical. To be noted: mitochondrial polymerase gamma, incorporation.
The target of data set [6] is T2, wild type HIV-1 reverse transcriptase. In words: Kinetics of nucleotide incorporation by wild type HIV-1 reverse transcriptase. To be noted: RT WT. The class given is biochemical. As for the experimental part:
Continued research on the guanosine prodrug approach for making D4G a viable anti-HIV agent has yielded a number of new findings. In the present example, enzyme kinetics for the incorporation of the active metabolites of guanosine prodrugs with wild type HIV-1 reverse transcriptase was determined. In this experiment, a mixture of 100 nM HIV-1 reverse transcriptase and 300 nM primer/template in which the correct base incorporation is a guanine nucleotide was rapidly mixed with nucleotide in the presence of 50 mM Tris, 50 mM NaCl and 10 mM MgCl2 for a set amount of time and then the reaction was stopped by the addition 300 mM of EDTA.

The mark [7] stands for this setting: mitochondrial polymerase gamma, from Johnson et al.
The mark [8] stands for this setting: Table 4, primer/template DNA/DNA.
[9] abbreviates: Table 4, primer/template DNA/RNA.

Where two headings read alike, the source gives them in different places.

`Cc1cn([C@H]2C=C[C@@H](COP(=O)(O)OP(=O)(O)OP(=O)(O)O)O2)c(=O)[nH]c1=O` [D4TTP]: the kexo in data set [1] was 0.0004 s⁻¹. In addition, in data set [2], the “Toxicity Index” value is 3,120. Moreover, in data set [2] (setting [7]), the Discrimination is 7.4, the Kd is 0.045 ± 0.0075 µM, the kpol was 0.24 ± 0.01 s⁻¹ and the “kpol/Kd” value was 5.4e+06 ± 930000 M⁻¹ s⁻¹.

With `Nc1nc2c(ncn2[C@H]2C[C@H](O)[C@@H](COP(=O)(O)OP(=O)(O)OP(=O)(O)O)O2)c(=O)[nH]1` [DGTP], in data set [3] (Table 3, substrate DNA/DNA), the Kd is 14 ± 2 µM, the “Selectivity = (kpol/Kd)dGTP/(kpol/Kd)analog” value is reported as 1 and the kpol was 24 ± 1 s⁻¹. Also, in data set [3] (Table 3, substrate DNA/RNA), the Kd is 11 ± 2 µM, the “Selectivity = (kpol/Kd)dGTP/(kpol/Kd)analog” value was 1 and the kpol is 35 ± 2 s⁻¹. Further, the kexo in data set [4] came out at 0.019 ± 0.0019 s⁻¹. Further, in data set [5], the Kd worked out at 1.4 ± 0.3 µM, the kpol was 175 ± 10 s⁻¹ and the “kpol/Kd” value was 1.3e+08 ± 3e+07 M⁻¹ s⁻¹. In data set [6] (setting [8]), this compound gave an Efficiency of 1.7 ± 0.3 s^−1μM^−1, a Kd of 14 ± 2 µM and a kpol of 24 ± 1 s⁻¹. In data set [6] (setting [9]), this compound displayed an Efficiency of 3.1 ± 0.6 s^−1μM^−1, a Kd of 11 ± 2 µM and a kpol of 35 ± 2 s⁻¹.
